In patent publication US11464770B2, “Anticancer pharmaceutical composition” (NATIONAL CANCER CENTER, priority 2016, dated 2022) one finds IC50 data, which are given here for 17 molecules.

The subject of this experiment is colorectal cancer cell lines (e.g. DLD-1, HCT 116, SW620, HCT-15, HCT-8, RKO). The experiment is described as follows: Cell based assay, cell viability (CellTiter-Glo), colorectal cancer cell lines. Summed up:
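Luminescent ATP assay quantified surviving cells after three days of treatment. Compound was applied at final concentrations of 0 to 2 μM, starting 24 h after cells were seeded.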

Setting [1] is: Homo sapiens, DLD-1, 72 hours treatment, read-out: IC50, colorectal cancer cell line DLD-1.
[2] abbreviates: Homo sapiens, HCT 116, 72 hours treatment, read-out: IC50, colorectal cancer cell line HCT 116.
The mark [3] stands for this setting: Homo sapiens, HCT-8, 72 hours treatment, read-out: IC50, colorectal cancer cell line HCT-8.
[4] abbreviates: Homo sapiens, HCT-15, 72 hours treatment, read-out: IC50, colorectal cancer cell line HCT-15.
The mark [5] stands for this setting: Homo sapiens, HT-29, 72 hours treatment, read-out: IC50, colorectal cancer cell line HT-29.
[6] abbreviates: Homo sapiens, LoVo, 72 hours treatment, read-out: IC50, colorectal cancer cell line LoVo.
[7] abbreviates: Homo sapiens, SW480, 72 hours treatment, read-out: IC50, colorectal cancer cell line SW480.
[8] abbreviates: Homo sapiens, SW-620, SW620, 72 hours treatment, read-out: IC50, colorectal cancer cell line SW620.
[9] abbreviates: RKO, 72 hours treatment, read-out: IC50, colorectal cancer cell line RKO.
The mark [10] stands for this setting: Homo sapiens, DLD-1 cells, 72 hours treatment, read-out: IC50, colorectal cancer cell line DLD-1.
Setting [11] is: Homo sapiens, HCT 116 cells, 72 hours treatment, read-out: IC50, colorectal cancer cell line HCT 116.
The mark [12] stands for this setting: Homo sapiens, HCT-8 cells, 72 hours treatment, read-out: IC50, colorectal cancer cell line HCT-8.
The mark [13] stands for this setting: Homo sapiens, HCT-15 cells, 72 hours treatment, read-out: IC50, colorectal cancer cell line HCT-15.
[14] abbreviates: Homo sapiens, HT-29 cells, 72 hours treatment, read-out: IC50, colorectal cancer cell line HT-29.
[15] abbreviates: Homo sapiens, LoVo cells, 72 hours treatment, read-out: IC50, colorectal cancer cell line LoVo.
The mark [16] stands for this setting: Homo sapiens, RKO cells, 72 hours treatment, read-out: IC50, colorectal cancer cell line RKO.
The mark [17] stands for this setting: Homo sapiens, SW480 cells, 72 hours treatment, read-out: IC50, colorectal cancer cell line SW480.
Setting [18] is: Homo sapiens, SW-620, SW620 cells, 72 hours treatment, read-out: IC50, colorectal cancer cell line SW620.

pIC50: −log10 of the molar value. Read-outs that look alike come from different tables or passages of the source.

On to `CC(=O)c1c([S+]([O-])Cc2ccc(SC(F)(F)F)cc2)[nH]c2c(Cl)ccc(Cl)c2c1=O` (stereo not drawn) [Compound 79, 3-acetyl-5,8-dichloro-2-((4-((trifluoromethyl)thio)benzyl)sulfinyl)quinolin-4(1H)-one], for which the negative logarithm of the IC50 (pIC50) was under 5.70 under setting [1]; under 5.70 under setting [2]; under 5.70 under setting [3]; under 5.70 under setting [4]; under 5.00 under setting [5]; under 5.70 under setting [6]. Moreover, the negative logarithm of the IC50 (pIC50) is, setting by setting: under setting [7], under 5.70; under setting [8], under 5.70; under setting [9], under 5.70.

With `CC(=O)c1c(SCc2cc(F)cc(F)c2)[nH]c2c(Br)ccc(Cl)c2c1=O` [Compound 45, 3-acetyl-8-bromo-5-chloro-2-((3,5-difluorobenzyl)thio)quinolin-4(1H)-one], the pIC50 was under 5.70 under setting [1]; under 5.70 under setting [2]; under 5.70 under setting [3]; under 5.70 under setting [4]; under 5.00 under setting [5]; under 5.70 under setting [6]. For the same molecule, the negative-log IC50 (pIC50) by setting is: under setting [7], under 5.70; under setting [8], under 5.70; under setting [9], under 5.70.

Regarding `CC(=O)c1c([S+]([O-])c2ccc(Br)cc2)[nH]c2c(Br)ccc(Cl)c2c1=O` (stereo not drawn) [Compound 17, 3-acetyl-8-bromo-2-((4-bromophenyl)sulfinyl)-5-chloroquinolin-4(1H)-one], the pIC50 is, setting by setting: under setting [1], under 5.70; under setting [2], under 5.70; under setting [3], under 5.70; under setting [4], under 5.70; under setting [5], under 5.00; under setting [6], under 5.70. For the same molecule, the negative-log IC50 (pIC50) runs as follows: under setting [7], under 5.70; under setting [8], under 5.70; under setting [9], under 5.70.

With `CC(=O)c1c([S+]([O-])Cc2ccccc2)nc2c(Br)ccc(Cl)c2c1O` (stereo not drawn) [Compound 4], the pIC50 is, setting by setting: under setting [1], 5.74; under setting [2], 5.94; under setting [3], 5.80; under setting [4], 5.88; under setting [5], under 5.00; under setting [6], 5.74. The pIC50 by setting is: under setting [7], under 5.70; under setting [8], 5.88; under setting [9], 5.81.

Turning to `CC(=O)c1c(SCc2cc(Cl)ccc2Cl)[nH]c2c(Br)ccc(Cl)c2c1=O` [Compound 43, 3-acetyl-8-bromo-5-chloro-2-((2,5-dichlorobenzyl)thio)quinolin-4(1H)-one], the negative-log IC50 (pIC50) under setting [1] is under 5.70; the negative-log IC50 (pIC50) under setting [2] was under 5.70; the negative-log IC50 (pIC50) under setting [3] is under 5.70; the negative-log IC50 (pIC50) under setting [4] is under 5.70; the negative logarithm of the IC50 (pIC50) under setting [5] was under 5.00; the pIC50 under setting [6] is under 5.70. In addition, the pIC50 runs as follows: under setting [7], under 5.70; under setting [8], under 5.70; under setting [9], under 5.70.

For the molecule `CC(=O)c1c([S+](C)[O-])n(S(=O)(=O)C(F)(F)F)c2c(Br)ccc(Cl)c2c1=O` (stereo not drawn) [Compound 36, 3-acetyl-8-bromo-5-chloro-2-(methylsulfinyl)-1-((trifluoromethyl)sulfonyl)quinolin-4(1H)-one], the pIC50 by setting is: under setting [1], under 5.70; under setting [2], under 5.70; under setting [3], under 5.70; under setting [4], under 5.70; under setting [5], under 5.00; under setting [6], under 5.70. In addition, the pIC50 by setting is: under setting [7], under 5.70; under setting [8], under 5.70; under setting [9], under 5.70.

`CC(=O)c1c([S+]([O-])Cc2ccc(-n3cccn3)nc2)[nH]c2c(Br)ccc(Cl)c2c1=O` (stereo not drawn) [Compound 99, 2-(((6-(1H-pyrazol-1-yl)pyridin-3-yl)methyl)sulfinyl)-3-acetyl-8-bromo-5-chloroquinolin-4(1H)-one]: the pIC50 runs as follows: under setting [10], 6.06; under setting [11], 6.09; under setting [12], 6.01; under setting [13], 6.01; under setting [14], under 5.00; under setting [15], 5.84. Further, the pIC50 was 6.02 under setting [16], 5.89 under setting [17] and 6.04 under setting [18].

As to `CC(=O)c1c([S+]([O-])Cc2ccc(C#N)s2)[nH]c2c(Br)ccc(Cl)c2c1=O` (stereo not drawn) [Compound 98, 5-(((3-acetyl-8-bromo-5-chloro-4-oxo-1,4-dihydroquinolin-2-yl)sulfinyl)methyl)thiophene-2-carbonitrile], the pIC50 runs as follows: under setting [10], 5.82; under setting [11], 5.83; under setting [12], 5.78; under setting [13], 5.76; under setting [14], under 5.00; under setting [15], under 5.70. Moreover, the negative logarithm of the IC50 (pIC50) is 5.87 under setting [16], under 5.70 under setting [17] and 5.75 under setting [18].

Consider `CC(=O)c1c([S+]([O-])CN2C(=O)c3ccccc3C2=O)[nH]c2c(Cl)ccc(Cl)c2c1=O` (stereo not drawn) [Compound 90, 2-(((3-acetyl-5,8-dichloro-4-oxo-1,4-dihydroquinolin-2-yl)sulfinyl)methyl)isoindoline-1,3-dione], for which the pIC50 was under 5.70 under setting [10]; under 5.70 under setting [11]; under 5.70 under setting [12]; under 5.70 under setting [13]; under 5.00 under setting [14]; under 5.70 under setting [15]. In addition, the pIC50 by setting is: under setting [16], under 5.70; under setting [17], under 5.70; under setting [18], under 5.70.

As to `CC(=O)c1c([S+]([O-])Cc2ccc(C(F)(F)F)nc2C)[nH]c2c(Br)ccc(Cl)c2c1=O` (stereo not drawn) [Compound 102, 3-acetyl-8-bromo-5-chloro-2-(((2-methyl-6-(trifluoromethyl)pyridin-3-yl)methyl)sulfinyl)quinolin-4(1H)-one], the negative-log IC50 (pIC50) runs as follows: under setting [10], 5.94; under setting [11], 5.91; under setting [12], 5.91; under setting [13], 5.88; under setting [14], under 5.00; under setting [15], 5.71. The negative-log IC50 (pIC50) under setting [16] is 5.92, the negative logarithm of the IC50 (pIC50) under setting [17] was 5.80 and the negative logarithm of the IC50 (pIC50) under setting [18] was 5.91.

For `CC(=O)c1c([S+]([O-])Cc2ccc(Cl)nc2)[nH]c2c(Br)ccc(Cl)c2c1=O` (stereo not drawn) [Compound 104, 3-acetyl-8-bromo-5-chloro-2-(((6-chloropyridin-3-yl)methyl)sulfinyl)quinolin-4(1H)-one], the negative logarithm of the IC50 (pIC50) is 5.91 under setting [10]; 5.88 under setting [11]; 5.89 under setting [12]; 5.83 under setting [13]; under 5.00 under setting [14]; under 5.70 under setting [15]. In addition, the pIC50 under setting [16] was 5.94, the negative-log IC50 (pIC50) under setting [17] is 5.80 and the pIC50 under setting [18] is 5.87.

As to `O=C(c1c([S+]([O-])Cc2ccc(SC(F)(F)F)cc2)[nH]c2c(Br)ccc(Cl)c2c1=O)C1CC1` (stereo not drawn) [Compound 101, 8-bromo-5-chloro-3-(cyclopropanecarbonyl)-2-((4-((trifluoromethyl)thio)benzyl)sulfinyl)quinolin-4(1H)-one], the negative logarithm of the IC50 (pIC50) reads like this: under setting [10], under 5.70; under setting [11], 5.76; under setting [12], 5.79; under setting [13], under 5.70; under setting [14], under 5.00; under setting [15], under 5.70. In addition, the negative logarithm of the IC50 (pIC50) was 5.72 under setting [16], under 5.70 under setting [17] and under 5.70 under setting [18].

For the molecule `CC(=O)c1c(SCc2cccc(C#N)c2)[nH]c2c(Br)ccc(Cl)c2c1=O` [Compound 27, 3-(((3-acetyl-8-bromo-5-chloro-4-oxo-1,4-dihydroquinolin-2-yl)thio)methyl)benzonitrile], the negative-log IC50 (pIC50) was under 5.70 under setting [1]; under 5.70 under setting [2]; under 5.70 under setting [3]; under 5.70 under setting [4]; under 5.00 under setting [5]; under 5.70 under setting [6]. Further, the pIC50 under setting [7] was under 5.70, the negative logarithm of the IC50 (pIC50) under setting [8] was under 5.70 and the pIC50 under setting [9] was under 5.70.

Consider `CC(=O)c1c([S+](C)[O-])n(S(=O)(=O)c2ccc(C(C)(C)C)cc2)c2c(Br)ccc(Cl)c2c1=O` (stereo not drawn) [Compound 42, 3-acetyl-8-bromo-1-((4-(tert-butyl)phenyl)sulfonyl)-5-chloro-2-(methylsulfinyl)quinolin-4(1H)-one], for which the pIC50 by setting is: under setting [1], 5.71; under setting [2], under 5.70; under setting [3], under 5.70; under setting [4], under 5.70; under setting [5], under 5.00; under setting [6], under 5.70. For the same molecule, the pIC50 by setting is: under setting [7], under 5.70; under setting [8], under 5.70; under setting [9], under 5.70.

Consider `CC(=O)c1c([S+]([O-])C(C)C)[nH]c2c(Br)ccc(Cl)c2c1=O` (stereo not drawn) [Compound 25, 3-acetyl-8-bromo-5-chloro-2-(isopropylsulfinyl)quinolin-4(1H)-one], for which the negative-log IC50 (pIC50) is, setting by setting: under setting [1], under 5.70; under setting [2], under 5.70; under setting [3], under 5.70; under setting [4], under 5.70; under setting [5], under 5.00; under setting [6], under 5.70. Besides, the pIC50 by setting is: under setting [7], under 5.70; under setting [8], under 5.70; under setting [9], under 5.70.

For the molecule `CC(=O)c1c([S+](C)[O-])[nH]c2c(Br)ccc(Cl)c2c1=O` (stereo not drawn) [Compound 1, 3-acetyl-8-bromo-5-chloro-2-(methylsulfinyl)quinolin-4(1H)-one], the pIC50 is 6.09 under setting [1]; 5.78 under setting [2]; under 5.70 under setting [3]; under 5.70 under setting [4]; under 5.00 under setting [5]; under 5.70 under setting [6]. Moreover, the negative logarithm of the IC50 (pIC50) reads like this: under setting [7], under 5.70; under setting [8], under 5.70; under setting [9], under 5.70.

As to `CSc1c(C(C)=O)c(=O)c2c(Cl)ccc(Br)c2n1C` [Compound 5, 3-acetyl-8-bromo-5-chloro-1-methyl-2-(methylthio)quinolin-4(1H)-one], the pIC50 was under 5.70 under setting [1]; under 5.70 under setting [2]; under 5.70 under setting [3]; under 5.70 under setting [4]; under 5.00 under setting [5]; under 5.70 under setting [6]. Besides, the negative-log IC50 (pIC50) under setting [7] is under 5.70, the pIC50 under setting [8] is under 5.70 and the pIC50 under setting [9] was under 5.70.
